Measurements taken from paper PMC11429203, “Developing New Peptides and Peptide–Drug Conjugates for Targeting the FGFR2 Receptor-Expressing Tumor Cells and 3D Spheroids” (Biomimetics, 2024).
Where a SMILES comes first, the peptide text is derived from it. Where no end group is shown, it is not given here. The star is where a group is joined. Doxorubicin(3'-N) = COc1cccc2c1C(=O)c1c(O)c3c(c(O)c1C2=O)C[C@@](O)(C(=O)CO)C[C@@H]3O[C@H]1C[C@H](N*)[C@H](O)[C@H](C)O1

Experiments:
Assay type in all cases: cell-based, human
[1] = system: co-cultured spheroids of KATO (III) cells and colon tumor-associated fibroblasts (CAFs); test: Permeation into 3D co-cultured spheroids (fluorescence imaging); details: for Permeation of DOX conjugates and neat DOX into spheroids / Permeation of carboxyfluorescein-tagged peptides into spheroids: 1 µM, spheroids grown 6 days at 2000 cells/well, fluorescence imaging; for Permeation of DOX conjugates and neat DOX into spheroids: inherent DOX fluorescence; for Penetration depth from Image J plot profiles of fluorescence intensity, periphery to center: semi-quantitative mean normalized intensity, mean from 3 spheroids; for Permeation of carboxyfluorescein-tagged peptides into spheroids: 24 h incubation
Protocol: To mimic the tumor microenvironment, 3D cultures of tumor cells (spheroids) were grown. For growing spheroids, co-cultures of human colon-associated tumor fibroblasts and KATO III gastric cancer cells were grown in a 1:3 ratio in a growth media containing IMDM and fibroblast growth medium. Spheroids grown at 2000 cells/well and 4000 cells/well were co-cultured in Nunclon Sphera nonadherent 12-well plates and allowed to grow over a period of two weeks. The growth of the spheroids was monitored using optical microscopy. Media was cautiously removed every two days, and replaced with new medium.
The co-cultured spheroids were grown at a density of 2000 cells/well for six days prior to treatment with the peptides or the peptide–drug conjugates. To visualize the internalization of the peptides, those were first tagged with fluorescein to allow for visualization through fluorescence microscopy. For tagging, each peptide was tagged with NHS-Fluorescein (5/6-carboxyfluorescein succinimidyl ester to allow for binding with the amine group of the peptides). To each peptide solution (10 µM), 1 µM of the dye solution was added and allowed to shake in the dark for 24 h. The solutions were then centrifuged and washed with deionized water twice to remove any unbound dye. Then, peptide solutions were vortexed and allowed to incubate with the spheroids. For the drug conjugates, no tagging was done, due to inherent fluorescence of DOX. In general, 1 µM solutions of the peptides or drug conjugates were used. The spheroids were then visualized using fluorescent microscopy using an inverted Amscope IN480TC-20MB13 microscope at various magnifications.
To visualize the internalization of the peptides and the peptide–drug conjugates in the spheroids, we conducted fluorescence microscopy using an Amscope Inverted Phase-Contrast Fluorescence Microscope. Samples were imaged at various magnifications.
It is well known that constrained interstitial penetration may impede the diffusion of drugs into tumors, thus affecting efficacy. […] Their entry within the spheroids was examined through fluorescence imaging. In the case of the conjugates, because DOX is inherently fluorescent, fluorescence images were taken without tagging. […] The plot profiles obtained from the edge of the spheroid to the center were measured. On average, five measurements were carried out for images of each of the spheroids that were incubated with DOX-conjugated peptides, as well as with neat DOX. The fluoresence intensity from the periphery to the center of the spheroid was measured.

[2] = system: KATO III gastric cancer cells; test: WST-8 cytotoxicity assay, tumor cells; details: 24 h, WST-8, highest concentration (5 µM), triplicate
Protocol: Three cell lines were cultured in 50 mL sterile falcon tissue culture flasks. These included the FGFR2-expressing KATO III gastric cancer cell line (ATCC HTB-103), human colon cancer-associated tumor fibroblasts (HC-6231, Cell Biologics), and primary lung fibroblasts (normal) as control (ATCC-PCS-201-013). Both lines of fibroblasts were grown in Fibroblast Growth Media, and KATO III cells were cultured in Iscove’s Modified Dulbecco’s Medium (IMDM). All growth media were supplement with 10% fetal bovine serum (ATCC), 3 mL of 1X antibiotic-antimycotic mixture per 500 mL medium (GIBCO), 10 units/mL penicillin and 10 μg/mL streptomycin (GIBCO). Each cell line was incubated at 37 °C in a 5% CO2 incubator. Cells were grown to confluence, and the medium was changed every 2 to 3 days. Confluent cells were split twice a week.
Cells were plated in 96-well plates at a density of 1 × 10^4 cells/well. WST-8 assays (Cayman Chemicals, Ann Arbor, MI, USA) were conducted in triplicate for non-cancer primary fibroblasts, as well as for KATO III cells, following manufacturer instructions from the assay kit. […] Following incubation with WST-8 reagent according to manufacturer instructions, absorbance at 450 nm was measured using a Biotek microplate reader. The absorbance of DOX in media was subtracted.
To quantify the effects of the cytotoxicity of the peptides and the DOX conjugates, we conducted WST-8 assays. […]

KATO (III) tumor cells = test: Phase contrast imaging of cell morphology after treatment; details: 1 µM, 24 h, phase contrast microscopy
Protocol: Cells were plated in 96-well plates at a density of 1 × 10^4 cells/well. WST-8 assays (Cayman Chemicals, Ann Arbor, MI, USA) were conducted in triplicate for non-cancer primary fibroblasts, as well as for KATO III cells, following manufacturer instructions from the assay kit. In general, varying concentrations of the peptides and the DOX conjugates were utilized. The concentrations used were 0.1 µM, 0.5 µM, 1 µM, 2 µM and 5 µM. Neat DOX (1 µM, 2 µM) was also compared. The peptides or drug conjugates or DOX were allowed to incubate with cells for 24 h, and imaged using a phase contrast optical microscope before analysis. Following incubation with WST-8 reagent according to manufacturer instructions, absorbance at 450 nm was measured using a Biotek microplate reader. The absorbance of DOX in media was subtracted.
To investigate the impact of the peptides and the peptide–DOX conjugates on KATO (III) tumor cells, we conducted cytotoxicity studies.

Molecule	Permeation of DOX conjugates and neat DOX into spheroids [1]	Cell viability [2]	Cell morphology after treatment (KATO (III) tumor cells)	Penetration depth from Image J plot profiles of fluorescence intensity, periphery to center [1]	Permeation of carboxyfluorescein-tagged peptides into spheroids [1]
COc1cccc2c1C(=O)c1c(O)c3c(c(O)c1C2=O)C[C@@](O)(C(=O)CO)C[C@@H]3O[C@H]1C[C@H](NC(=O)CC[C@H](NC(=O)[C@@H]2CCCN2C(=O)[C@@H](NC(=O)[C@H](CC(C)C)NC(=O)[C@@H](NC(=O)[C@H](Cc2c[nH]cn2)NC(=O)[C@@H]2CCCN2C(=O)[C@@H](N)CC(C)C)C(C)C)[C@@H](C)O)C(=O)N[C@@H](C)C(=O)NCC(=O)N[C@@H](C)C(=O)N[C@H](C(=O)N[C@H]2C[C@H](O[C@H]3C[C@](O)(C(=O)CO)Cc4c(O)c5c(c(O)c43)C(=O)c3c(OC)cccc3C5=O)O[C@@H](C)[C@H]2O)[C@@H](C)O)[C@H](O)[C@H](C)O1 [L-pep-(DOX)2]	comparatively lower intensity of fluorescence	7%	–	–	–
COc1cccc2c1C(=O)c1c(O)c3c(c(O)c1C2=O)C[C@@](O)(C(=O)CO)C[C@@H]3O[C@H]1C[C@H](NC(=O)CNC(=O)[C@H](C)NC(=O)[C@H](CO)NC(=O)[C@H](CS)NC(=O)[C@H](C)N)[C@H](O)[C@H](C)O1 [A-pep-DOX] (H-ACSAG-{Doxorubicin(3'-N)}; N-terminus assumed)	higher fluorescence	9%	appeared to bleb and burst	penetrate deeper	–
CC(C)C[C@H](NC(=O)[C@@H](NC(=O)[C@H](Cc1c[nH]cn1)NC(=O)[C@@H]1CCCN1C(=O)[C@@H](N)CC(C)C)C(C)C)C(=O)N[C@H](C(=O)N1CCC[C@H]1C(=O)N[C@@H](CCC(=O)O)C(=O)N[C@@H](C)C(=O)NCC(=O)N[C@@H](C)C(=O)N[C@H](C(=O)O)[C@@H](C)O)[C@@H](C)O [L-pep]	–	–	appeared spherical	–	relatively higher fluorescence was observed in the outlayers compared to the core
ACSAG [A-pep]	–	–	loss of morphology and adhesive properties	–	higher internalization
COc1cccc2c1C(=O)c1c(O)c3c(c(O)c1C2=O)C[C@@](O)(C(=O)CO)C[C@@H]3O[C@H]1C[C@H](N)[C@H](O)[C@H](C)O1 [DOX, Doxorubicin, reference compound]	marginal internalization	–	–	–	–
ACSAGLPHVLTPEAGATGASCA-(DOX)2 [Trimer-pep-(DOX)2]	relatively higher penetration	–	–	penetrate deeper	–
